Laboratory results taken from patent US20230247992A1, “ARTHROPOD CONTROL COMPOSITION” (Firmenich SA, priority 2020, published 2023).
Where two headings read alike, the source gives them in different places.

Columns and labels:
Format in all cases: in vivo
[1] = test system: Aedes aegypti; assay: in vitro Warm Body assay, substance applied on glass Petri dish on top of the warm body (deterrence and repellence)
Experimental: (§1) The controlling effect, repellence & spatial repellence, according to the present invention is determined by testing the Warm Body assay against the yellow fever mosquito, Aedes aegypti Rockefeller strain. […] Observations of controlling efficacy were made on host-seeking females of uniform age, 5 to 10 days old selected as mentioned in the publication mentioned hereinabove. Tested hungry females had access to 10% sugar solution but were not blood-fed. Further information is provided in the accompanying examples.
(§2) The published protocol has been adapted in not manually counting the landing mosquitoes but automatically using an automatic counting software, the switch from Anopheles gambiae to A. aegypti led to a decrease of mosquitoes’ number placed in the tested cage due to the size difference (i.e. 30 mosquitoes instead of 50) and to an increase of lighting as A. aegypti is a diurnal mosquitoes (i.e. 150 lux instead of 4 lux). Further information is provided in the accompanying examples.,
(§3) The controlling effect of the compositions according to the present invention was assessed using an adapted Warm Body assay as defined in Kröber T, Kessler S, Frei J, Bourquin M, Guerin PM. 2010. An in vitro assay for testing mosquito controlling compounds employing a warm body and carbon dioxide as a behavioral activator. J Am Mosq Control Assoc. 26:381-386. In this in-vitro assay the number of mosquito landing on a warm body, simulating an attractive host treated with the tested stimuli, was measured in order to assess the repellence effect.
as §2, with “to Aedes” for “to A.”, “lux).” for “lux). Further information is provided in the accompanying examples.,”
(§4) In addition, since the inventors were interested by assessing spatial repellence added or not to a deterrent effect, the substance was applied using two different technics. Whether, as in Kröber et al. (2010), both deterrent and repellent effect were investigated (i.e. similar effect than most body care applications such as lotion) and the substances was applied on a sandblasted glass Petri dish placed on top of the warm body. Whether only the spatial repellence was investigated (i.e. similar effect than most home care applications such as liquid electric dispenser) and the substance was introduced in the cage space thanks to a forced evaporation system as described in Chappuis C J-F, Niclass Y, Vuilleumier C, Starkenmann C. 2015. Quantitative Headspace Analysis of Selected Odorants from Latrines in Africa and India. Environ. Sci. Technol. 49:6134-6140.
(§5) As stated in Kröber et al. (2010), selected 10-12 days old hungry females, that had ad libitum access to 10% sugar solution but were not blood-fed, were selected for the assay.
On the sandblasted glass Petri dish covering the warm body (28.3 cm^2), 100 µL of the substances diluted at different concentrations in ethanol was applied. The number of mosquito landing on the warm body was counted for each stimuli, N,N-diethyl-3-methylbenzamide (DEET) and ethyl 3-[acetyl(butyl)amino]propanoate (IR3535) being used as benchmarks and pure ethanol as control.

[2] = test system: Aedes aegypti; assay: in vitro Warm Body assay, substance introduced in the cage air by forced evaporation (spatial repellence)
Experimental: as §1, §2, §3
as §2, with “to Aedes” for “to A.”, “lux).” for “lux). Further information is provided in the accompanying examples.,”
as §4, §5
The forced evaporation system allows to fill the volume of the cage with stimuli tested, (2-methyl-4-oxo-3-prop-2-ynylcyclopent-2-en-1-yl) 2,2-dimethyl-3-(2-methylprop-1-enyl)cyclopropane-1-carboxylate (prallethrin) and N,N-diethyl-3-methylbenzamide (DEET) being used as benchmarks. In order to limit potential dead volumes in the cage, five flushes of the cage were made before starting the 2 minutes test during which the number of mosquito landings was counted.

[3] = test system: Ixodes ricinus; assay: whole plant or invertebrate; settings: for pest or weed control at 1 µg/cm2, 1 µg/cm2 / pest or weed control at 5 µg/cm2, 5 µg/cm2 / pest or weed control at 25 µg/cm2, 25 µg/cm2 / pest or weed control at 0.04 µg/cm2, 0.04 µg/cm2: Ixodes ricinus, read-out: mean percentage of ticks affected; for pest or weed control at 0.04 µg/cm2, 0.04 µg/cm2: 0.04 µg/cm^2, diluted in ethanol; for tick response compared with the benchmark IR3535: concentrations tested
[4] = 0.04% in ethanol, ethanol control 67.0±8.8 landings
[5] = 1% in ethanol, ethanol control 67.0±8.8 landings
[6] = […] in ethanol, ethanol control 67.0±8.8 landings
[7] = 0.04% in ethanol, ethanol control 59.3±6.9 landings
[8] = 1% in ethanol, ethanol control 59.3±6.9 landings
[9] = […] in ethanol, ethanol control 59.3±6.9 landings
[10] = 0.0017 µg/L air, without substance 54.7±3.2
[11] = 0.017 µg/L air, without substance 54.7±3.2
[12] = 0.17 µg/L air, without substance 54.7±3.2
[13] = 1.7 µg/L air, without substance 54.7±3.2
[14] = 17 µg/L air, without substance 54.7±3.2
[15] = 1 µg/cm^2, diluted in ethanol, ethanol control 1.0±1.2%
[16] = 5 µg/cm^2, diluted in ethanol, ethanol control 1.0±1.2%
[17] = 25 µg/cm^2, diluted in ethanol, ethanol control 1.0±1.2%
[18] = 1 µg/cm^2, diluted in ethanol, ethanol control 0.6±0.5%
[19] = 25 µg/cm^2, diluted in ethanol, ethanol control 0.6±0.5%
[20] = 0.04% in ethanol, ethanol control 67.1±9.1 landings
[21] = 1% in ethanol, ethanol control 67.1±9.1 landings
[22] = […] in ethanol, ethanol control 67.1±9.1 landings
[23] = 0.0017 µg/L air, without substance 56.0±3.6
[24] = 0.017 µg/L air, without substance 56.0±3.6
[25] = 0.17 µg/L air, without substance 56.0±3.6
[26] = 1.7 µg/L air, without substance 56.0±3.6
[27] = 17 µg/L air, without substance 56.0±3.6

| SMILES | number of mosquitoes landing within 2 minutes on the warm body [1, 4] | number of mosquitoes landing within 2 minutes on the warm body [1, 5] | number of mosquitoes landing within 2 minutes on the warm body [1, 6] | pest or weed control at 1 µg/cm2, 1 µg/cm2 [3] | pest or weed control at 5 µg/cm2, 5 µg/cm2 [3] | pest or weed control at 25 µg/cm2, 25 µg/cm2 [3] | number of mosquitoes landing within 2 minutes on the warm body [1, 7] | number of mosquitoes landing within 2 minutes on the warm body [1, 8] | number of mosquitoes landing within 2 minutes on the warm body [1, 9] | number of mosquitoes landing within 2 minutes on the warm body, air in the cage saturated with stimulus [2, 10] | number of mosquitoes landing within 2 minutes on the warm body, air in the cage saturated with stimulus [2, 11] | number of mosquitoes landing within 2 minutes on the warm body, air in the cage saturated with stimulus [2, 12] | number of mosquitoes landing within 2 minutes on the warm body, air in the cage saturated with stimulus [2, 13] | number of mosquitoes landing within 2 minutes on the warm body, air in the cage saturated with stimulus [2, 14] | pest or weed control at 1 µg/cm2, 1 µg/cm2 [3, 15] | pest or weed control at 5 µg/cm2, 5 µg/cm2 [3, 16] | pest or weed control at 25 µg/cm2, 25 µg/cm2 [3, 17] | number of mosquitoes landing within 2 minutes on the warm body [1, 20] | number of mosquitoes landing within 2 minutes on the warm body [1, 21] | number of mosquitoes landing within 2 minutes on the warm body [1, 22] | also measured |
| --- | --- | --- | --- | --- | --- | --- | --- | --- | --- | --- | --- | --- | --- | --- | --- | --- | --- | --- | --- | --- | --- |
| C/C=C/c1ccc(O)c(OC)c1 [2-methoxy-4-[(E)-prop-1-enyl]phenol] | 14.0 | 0.0 | 57.0 | 8% | 67% | 83% | – | – | – | – | – | – | – | – | – | – | – | – | – | – | landings per minute ([1]; concentration of 0.04%): ~ 10 landings per minute; number of mosquitoes landing within 2 minutes on the warm body, air in the cage saturated with stimulus ([2]; 0.017 µg/L air, without substance 54.1±4.9): 12.0; number of mosquitoes landing within 2 minutes on the warm body, air in the cage saturated with stimulus ([2]; 0.17 µg/L air, without substance 54.1±4.9): 4.0; number of mosquitoes landing within 2 minutes on the warm body, air in the cage saturated with stimulus ([2]; 1.7 µg/L air, without substance 54.1±4.9): 11.0 |
| CC(C=O)Cc1ccc(C(C)C)cc1 (centres unmarked) [2-methyl-3-(4-propan-2-ylphenyl)propanal] | – | – | – | – | – | – | 20.0 | 1.0 | 49.0 | 26.3 | 21.3 | 7.8 | 5.0 | 7.5 | 7% | 46% | 85% | – | – | – | – |
| O=C1CCC2CCCCC2O1 (centres unmarked) [3,4,4a,5,6,7,8,8a-octahydrochromen-2-one] | 7.0 | 0.0 | 45.0 | – | – | – | – | – | – | – | – | – | – | – | – | – | – | – | – | – | pest or weed control at 0.04 µg/cm2, 0.04 µg/cm2 ([3]; ethanol control 0.6±0.5%): 33%; pest or weed control at 1 µg/cm2, 1 µg/cm2 [3, 18]: 17%; pest or weed control at 25 µg/cm2, 25 µg/cm2 [3, 19]: 92% |
| C=Cc1ccc(O)c(OC)c1 [4-ethenyl-2-methoxyphenol] | – | – | – | 17% | 46% | 100% | – | – | – | – | – | – | – | – | – | – | – | 5.0 | 0.0 | 36.0 | number of mosquitoes landing within 2 minutes on the warm body, air in the cage saturated with stimulus [2, 23]: 11.0; number of mosquitoes landing within 2 minutes on the warm body, air in the cage saturated with stimulus [2, 24]: 15.0; number of mosquitoes landing within 2 minutes on the warm body, air in the cage saturated with stimulus [2, 25]: 0.0; number of mosquitoes landing within 2 minutes on the warm body, air in the cage saturated with stimulus [2, 26]: 3.0; number of mosquitoes landing within 2 minutes on the warm body, air in the cage saturated with stimulus [2, 27]: 2.0; landings in 2 minutes ([2]; dose of 0.17 µg/L of air): less than five; ticks prevented from climbing up in search of a feeding site ([3]; highest concentration of 1% (25 µg/cm^2)): all tested ticks |
| CCCCCC1CCC(=O)O1 (centres unmarked) [5-pentyloxolan-2-one] | – | – | – | – | – | – | 16.0 | 1.0 | 76.0 | 14.7 | 23.0 | 15.3 | 7.7 | 2.0 | 31% | 83% | 100% | – | – | – | tick response compared with the benchmark IR3535 [3]: response similar to the benchmark IR3535 |
| CC(C)=CCC/C(C)=C/C=O [(2E)-3,7-dimethylocta-2,6-dienal] | – | – | – | 15% | 0% | 58% | 16.0 | 2.0 | 89.0 | 25.3 | 15.7 | 15.3 | 14.7 | 23.0 | – | – | – | – | – | – | decrease of landings ([2]; identical at all concentrations tested): ~ 67% |
| CCC/C=C1\OC(=O)c2ccccc21 [(3Z)-3-butylidene-2-benzofuran-1-one] | – | – | – | 77% | 100% | 100% | – | – | – | – | – | – | – | – | – | – | – | 9.0 | 1.0 | 54.0 | number of mosquitoes landing within 2 minutes on the warm body, air in the cage saturated with stimulus [2, 23]: 59.0; number of mosquitoes landing within 2 minutes on the warm body, air in the cage saturated with stimulus [2, 24]: 31.5; number of mosquitoes landing within 2 minutes on the warm body, air in the cage saturated with stimulus [2, 25]: 17.0; number of mosquitoes landing within 2 minutes on the warm body, air in the cage saturated with stimulus [2, 26]: 11.0; number of mosquitoes landing within 2 minutes on the warm body, air in the cage saturated with stimulus [2, 27]: 37.0; repulsion ([2]; doses of 1.7 and/or 17 µg/L in air): < 90%; tick response compared with the benchmark IR3535 [3]: greater tick repellency; ticks affected ([3]; intermediate dose tested (0.2%)): all tested ticks were affected; fraction of the ticks affected ([3]; lowest dose tested (0.04%)): more than ¾ |
| CCCCN(CCC(=O)OCC)C(C)=O [ethyl 3-[acetyl(butyl)amino]propanoate, reference compound] | 20.7 | 7.7 | 70.0 | – | – | – | 20.7 | 7.7 | 70.0 | – | – | – | – | – | 33% | 67% | 91% | 20.7 | 7.7 | 70.0 | mean percentage of ticks affected [3, 18]: 33%; mean percentage of ticks affected ([3]; 1 µg/cm^2, diluted in ethanol, ethanol control 4.3±2.1%): 33%; mean percentage of ticks affected ([3]; 5 µg/cm^2, diluted in ethanol, ethanol control 0.6±0.5%): 67%; mean percentage of ticks affected ([3]; 5 µg/cm^2, diluted in ethanol, ethanol control 4.3±2.1%): 67%; mean percentage of ticks affected [3, 19]: 91%; mean percentage of ticks affected ([3]; 25 µg/cm^2, diluted in ethanol, ethanol control 4.3±2.1%): 91%; pest or weed control at 0.04 µg/cm2, 0.04 µg/cm2 ([3]; ethanol control 0.6±0.5%): 13% |
